For 4 compounds, MIC results are on record in patent publication US6858591B2, “Antibiotic AA 896 analogs” (Wyeth Holdings Corporation, priority 2001, dated 2005).

Molecules are shown by their SMILES. ≈ marks a conversion by molar mass, not a printed value.

Holding throughout (experiment): In vitro MIC, broth dilution
Common to all, as to format: cell-based
On the technique in general: Dilution methods test growth across graded concentrations, often in twofold steps.

The subject of one assay is E. coli GC 4559. As to conditions: Escherichia coli, GC4559; E. coli GC 4559; read-out: MIC.
The test system of a further assay is M. morganii GC 4531. To be noted: Morganella morganii, GC4531; M. morganii GC 4531; read-out: MIC.
The test system of a further assay is K. pneumoniae GC 4534. As to conditions: Klebsiella pneumoniae, GC4534; K. pneumoniae GC 4534; read-out: MIC.
In another assay the test system is C. albicans GC 3066. As to conditions: Candida albicans, GC3066; C. albicans GC 3066; read-out: MIC.
Another assay deals with E. cloacae GC 3783. As to conditions: Enterobacter cloacae, GC3783; E. cloacae GC 3783; read-out: MIC.
The test system of a further assay is S. marcescens GC 4077. To be noted: Serratia marcescens, GC4077; S. marcescens GC 4077; read-out: MIC.
For the next assay, the system named is E. coli GC 3226. As to conditions: Escherichia coli, GC3226; E. coli GC 3226; read-out: MIC.
For the next assay, the system named is E. coli GC 4560. To be noted: Escherichia coli, GC4560; E. coli GC 4560; read-out: MIC.
The subject of another assay is P. aeruginosa GC 4532. To be noted: Pseudomonas aeruginosa, GC4532; P. aeruginosa GC 4532; read-out: MIC.
Another assay relates to P. aeruginosa GC 2214. To be noted: Pseudomonas aeruginosa, GC2214; P. aeruginosa GC 2214; read-out: MIC.
The test system of the next assay is E. coli GC 2203. As to conditions: Escherichia coli, GC2203; E. coli GC 2203; read-out: MIC.
A further assay deals with CNS GC 4537. As to conditions: CNS GC 4537; read-out: MIC. Put shortly: (§1)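 Serial antibiotic dilutions (64-0.06 μg/ml) in Mueller-Hinton II were challenged with 5×10^5 CFU/ml bacteria. After an 18 hour ambient-air incubation at 35° C, the lowest concentration inhibiting growth was recorded as MIC, following NCCLS recommendations.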
The test system of another assay is CNS GC 4547. To be noted: CNS GC 4547; read-out: MIC. Put shortly:
as §1

Another assay deals with E. faecalis GC 2242. As to conditions: Enterococcus faecalis, GC2242; E. faecalis GC 2242; read-out: MIC. Put shortly:
as §1

A further assay deals with S. aureus GC 1131. As to conditions: Staphylococcus aureus, GC1131; S. aureus GC 1131; read-out: MIC. Put shortly:
as §1

For the next assay, the system named is E. faecalis GC 4555. As to conditions: Enterococcus faecalis, GC4555; E. faecalis GC 4555; read-out: MIC. Put shortly: as §1
The next assay relates to CNS GC 4538. As to conditions: CNS GC 4538; read-out: MIC. Put shortly: as §1
The subject of the next assay is S. aureus GC 4536. To be noted: Staphylococcus aureus, GC4536; S. aureus GC 4536; read-out: MIC. Put shortly: as §1
The next assay relates to E. faecalis GC 842. As to conditions: Enterococcus faecalis, GC842; E. faecalis GC 842; read-out: MIC. Put shortly:
as §1

The test system of another assay is S. aureus GC 2216. As to conditions: Staphylococcus aureus, GC2216; S. aureus GC 2216; read-out: MIC. Put shortly:
as §1

As a reminder, the MIC is the lowest concentration found to suppress growth. For the compound `COc1ccc(Cn2c(=O)ccn([C@@H]3OC([C@H](O)[C@H](NCCCNC(=O)[C@@H](N)CC(C)C)C(=O)OC(C)(C)C)[C@@H](O)[C@H]3O)c2=O)cc1` (stereo partly drawn) [Example 54, tert-Butyl (2S,3R)-2-[(3-{[(2S)-2-amino-4-methylpentanoyl]amino}propyl)amino]-3-[(3S,4R,5R)-3,4-dihydroxy-5-(3-(4-methoxybenzyl)-2,4-dioxo-3,4-dihydro-1(2H)-pyrimidinyl)tetrahydro-2-furanyl]-3-hydroxypropanoate], the MIC in the assay with E. coli GC 4559 is > 128 µg/mL; in the assay on M. morganii GC 4531 it was 128 µg/mL (≈ 193 µM); in the assay with K. pneumoniae GC 4534 it was > 128 µg/mL; with C. albicans GC 3066, > 128 µg/mL; in the assay on E. cloacae GC 3783, > 128 µg/mL; in the assay with S. marcescens GC 4077, > 128 µg/mL. For the same compound, the MIC in the assay with E. coli GC 3226 was > 128 µg/mL; with E. coli GC 4560 it was 128 µg/mL (≈ 193 µM); with P. aeruginosa GC 4532, > 128 µg/mL; in the assay with P. aeruginosa GC 2214, 128 µg/mL (≈ 193 µM); with E. coli GC 2203 it was > 128 µg/mL; in the assay with CNS GC 4537, > 128 µg/mL. Also, the MIC with CNS GC 4547 is > 128 µg/mL; with E. faecalis GC 2242 it was 128 µg/mL (≈ 193 µM); with S. aureus GC 1131, > 128 µg/mL; in the assay with E. faecalis GC 4555 it was > 128 µg/mL; with CNS GC 4538, > 128 µg/mL; in the assay with S. aureus GC 4536, > 128 µg/mL. Further, the MIC in the assay on E. faecalis GC 842 was 128 µg/mL (≈ 193 µM); in the assay with S. aureus GC 2216 it was > 128 µg/mL.

Consider `CC(C)C[C@H](NC(=O)OCc1ccccc1)C(=O)NCCCN[C@H](C(=O)O)[C@@H](O)C1O[C@@H](n2ccc(=O)[nH]c2=O)[C@H](O)[C@@H]1O` (stereo partly drawn) [Example 55, (5S,12S)-12-[(R)-[(3S,4R,5R)-5-(2,4-Dioxo-3,4-dihydro-1(2H)-pyrimidinyl)-3,4-dihydroxy-tetrahydro-2-furanyl](hydroxy)methyl]-5-isobutyl-3,6-dioxo-1-phenyl-2-oxa-4,7,11-triazatridecan-13-oic acid], for which the MIC in the assay with E. coli GC 4559 is > 128 µg/mL; in the assay on M. morganii GC 4531 it was 128 µg/mL (≈ 206 µM); in the assay on K. pneumoniae GC 4534 it was 128 µg/mL (≈ 206 µM); in the assay on C. albicans GC 3066 it was 128 µg/mL (≈ 206 µM); in the assay with E. cloacae GC 3783 it was 128 µg/mL (≈ 206 µM); in the assay with S. marcescens GC 4077 it was 128 µg/mL (≈ 206 µM). The MIC was 128 µg/mL (≈ 206 µM) with E. coli GC 3226; 128 µg/mL (≈ 206 µM) with E. coli GC 4560; 128 µg/mL (≈ 206 µM) with P. aeruginosa GC 4532; 128 µg/mL (≈ 206 µM) in the assay on P. aeruginosa GC 2214; 128 µg/mL (≈ 206 µM) with E. coli GC 2203; > 128 µg/mL with CNS GC 4537. The MIC was > 128 µg/mL with CNS GC 4547; 128 µg/mL (≈ 206 µM) in the assay on E. faecalis GC 2242; > 128 µg/mL in the assay on S. aureus GC 1131; 128 µg/mL (≈ 206 µM) in the assay on E. faecalis GC 4555; > 128 µg/mL in the assay with CNS GC 4538; > 128 µg/mL with S. aureus GC 4536. In addition, the MIC was 128 µg/mL (≈ 206 µM) in the assay with E. faecalis GC 842 and > 128 µg/mL in the assay with S. aureus GC 2216.

In the case of `COc1ccc(Cn2c(=O)ccn([C@@H]3OC([C@H](O)[C@H](NCCCNC(=O)[C@@H](CC(C)C)NC(=O)OCc4ccccc4)C(=O)OC(C)(C)C)[C@@H](O[Si](C)(C)C(C)(C)C)[C@H]3O[Si](C)(C)C(C)(C)C)c2=O)cc1` (stereo partly drawn) [Example 56, tert-Butyl (5R,12S)-12-[(R)-[(3R,4R,5R)-3,4-bis{[tert-butyl(dimethyl)silyl]oxy}-5-(3-(4-methoxybenzyl)-2,4-dioxo-3,4-dihydro-1(2H)-pyrimidinyl)tetrahydro-2-furanyl](hydroxy)methyl]-5-isobutyl-3,6-dioxo-1-phenyl-2-oxa-4,7,11-triazatridecan-13-oate], the MIC in the assay on E. coli GC 4559 is > 128 µg/mL; in the assay with M. morganii GC 4531, 128 µg/mL (≈ 125 µM); in the assay on K. pneumoniae GC 4534, > 128 µg/mL; with C. albicans GC 3066, > 128 µg/mL; in the assay on E. cloacae GC 3783, > 128 µg/mL; in the assay with S. marcescens GC 4077 it was > 128 µg/mL. The MIC is > 128 µg/mL with E. coli GC 3226; > 128 µg/mL in the assay with E. coli GC 4560; 128 µg/mL (≈ 125 µM) in the assay with P. aeruginosa GC 4532; 128 µg/mL (≈ 125 µM) with P. aeruginosa GC 2214; > 128 µg/mL in the assay with E. coli GC 2203; > 128 µg/mL in the assay on CNS GC 4537. Moreover, the MIC with CNS GC 4547 was > 128 µg/mL; in the assay with E. faecalis GC 2242, 128 µg/mL (≈ 125 µM); in the assay on S. aureus GC 1131, > 128 µg/mL; in the assay with E. faecalis GC 4555, > 128 µg/mL; in the assay with CNS GC 4538 it was > 128 µg/mL; in the assay on S. aureus GC 4536 it was > 128 µg/mL. The MIC with E. faecalis GC 842 and in the assay on S. aureus GC 2216 was > 128 µg/mL each time.

With `COc1ccc(Cn2c(=O)ccn([C@@H]3OC([C@H](O)[C@H](NCCCNC(=O)[C@H](N)CC(C)C)C(=O)OC(C)(C)C)[C@@H](O[Si](C)(C)C(C)(C)C)[C@H]3O[Si](C)(C)C(C)(C)C)c2=O)cc1` (some centres unmarked) [Example 57], the MIC was > 128 µg/mL in the assay on E. coli GC 4559; 128 µg/mL (≈ 143 µM) in the assay on M. morganii GC 4531; > 128 µg/mL in the assay on K. pneumoniae GC 4534; 128 µg/mL (≈ 143 µM) with C. albicans GC 3066; 128 µg/mL (≈ 143 µM) in the assay on E. cloacae GC 3783; 128 µg/mL (≈ 143 µM) with S. marcescens GC 4077. Also, the MIC in the assay on E. coli GC 3226 was > 128 µg/mL; with E. coli GC 4560, 128 µg/mL (≈ 143 µM); with P. aeruginosa GC 4532, 128 µg/mL (≈ 143 µM); with P. aeruginosa GC 2214 it was 128 µg/mL (≈ 143 µM); with E. coli GC 2203 it was > 128 µg/mL; in the assay on CNS GC 4537, 4 µg/mL (≈ 4.48 µM). Moreover, the MIC came to 64 µg/mL (≈ 71.7 µM) in the assay on CNS GC 4547; 4 µg/mL (≈ 4.48 µM) in the assay with E. faecalis GC 2242; 64 µg/mL (≈ 71.7 µM) in the assay with S. aureus GC 1131; 4 µg/mL (≈ 4.48 µM) in the assay on E. faecalis GC 4555; 4 µg/mL (≈ 4.48 µM) in the assay on CNS GC 4538; 8 µg/mL (≈ 8.97 µM) in the assay on S. aureus GC 4536. For the same compound, the figures for the MIC in the assay with E. faecalis GC 842 and in the assay with S. aureus GC 2216 were 8 µg/mL (≈ 8.97 µM) and 32 µg/mL (≈ 35.9 µM), respectively.
